Assay results as given in PMC11522928 (JACS Au, 2024).

Columns and labels:
[1] = tested on: chick embryos given CoCl2; assay: CoCl2 ischemia / hypoxia study, embryo survival; assay type: in vivo, Gallus gallus domesticus; settings: CoCl2 hexahydrate 1.2 mg, 0.54 M
chick embryos = assay: Embryo survival after dosing on the CAM
[2] = tested on: chick chorioallantoic membrane (CAM) vasculature; assay: Chick chorioallantoic membrane; assay type: in vivo, Gallus gallus domesticus; settings: 0.75 mg/kg (18.87 µM; antibody 1 mg/mL), n = 2-3, 24 h

O.O.O.O.O.O.[Cl-].[Cl-].[Co+2] [CoCl2, CoCl2 hexahydrate]
mortality of embryos treated only with CoCl2 ([1]; 32× LD50, 12 h, n = 4): 100% | mortality of embryos treated only with CoCl2 ([1]; 32× LD50, 24 h, n = 8): 100%

COC(=O)N[C@@H](Cc1ccccc1)C(=O)N[C@@H](Cc1ccc(NS(=O)(=O)O)cc1)c1csc(-c2cccs2)n1 [Razuprotafib]
embryo survival (chick embryos; dosed at 400 μM, n = 2): 50% | lethality, embryos dead / embryos tested (chick embryos; dosed at 40 mM on the CAM): 7/8

B1: Ang-1: human Ang-1 protein (Gibco) (protein, UniProt Q15389 16-498, looked up)
Angiopoietin-1: HIGCSNQRRSPENSGRRYNRIQHGQCAYTFILPEHDGNCRESTTDQYNTNALQRDAPHVEPDFSSQKLQHLEHVMENYTQWLQKLENYIVENMKSEMAQIQQNAVQNHTATMLEIGTSLLSQTAEQTRKLTDVETQVLNQTSRLEIQLLENSLSTYKLEKQLLQQTNEILKIHEKNSLLEHKILEMEGKHKEELDTLKEEKENLQGLVTRQTYIIQELEKQLNRATTNNSVLQKQQLELMDTVHNLVNLCTKEGVLLKGGKREEEKPFRDCADVYQAGFNKSGIYTIYINNMPEPKKVFCNMDVNGGGWTVIQHREDGSLDFQRGWKEYKMGFGNPSGEYWLGNEFIFAITSQRQYMLRIELMDWEGNRAYSQYDRFHIGNEKQNYRLYLKGHTGTAGKQSSLILHGADFSTKDADNDNCMCKCALMLTGGWWFDACGPSNLNGMFYTAGQNHGKLNGIKWHYFKGPSYSLRSTTMMIRPLDF
whether CAM results recapitulate those of KU04212, in words [2]: None of these agents gave results consistent with KU04212
